Results: patent US20210198277A1, “AMINE-SUBSTITUTED ARYL OR HETEROARYL COMPOUNDS” (Epizyme, Inc., priority 2016, published 2021)

These compounds were tested against T1, EHMT2 (Homo sapiens, UniProt Q96KQ7) (assay: MDA-MB-231 H3K9me2 in-cell Western assay (EHMT2 ICW)). Conditions: Table II; MDA-MB-231 H3K9me2 in-cell Western; read-out: EHMT2 ICW (IC50 μM).
T1 construct: host or cells: MDA-MB-231
T1 sequence (Q96KQ7 1-1210): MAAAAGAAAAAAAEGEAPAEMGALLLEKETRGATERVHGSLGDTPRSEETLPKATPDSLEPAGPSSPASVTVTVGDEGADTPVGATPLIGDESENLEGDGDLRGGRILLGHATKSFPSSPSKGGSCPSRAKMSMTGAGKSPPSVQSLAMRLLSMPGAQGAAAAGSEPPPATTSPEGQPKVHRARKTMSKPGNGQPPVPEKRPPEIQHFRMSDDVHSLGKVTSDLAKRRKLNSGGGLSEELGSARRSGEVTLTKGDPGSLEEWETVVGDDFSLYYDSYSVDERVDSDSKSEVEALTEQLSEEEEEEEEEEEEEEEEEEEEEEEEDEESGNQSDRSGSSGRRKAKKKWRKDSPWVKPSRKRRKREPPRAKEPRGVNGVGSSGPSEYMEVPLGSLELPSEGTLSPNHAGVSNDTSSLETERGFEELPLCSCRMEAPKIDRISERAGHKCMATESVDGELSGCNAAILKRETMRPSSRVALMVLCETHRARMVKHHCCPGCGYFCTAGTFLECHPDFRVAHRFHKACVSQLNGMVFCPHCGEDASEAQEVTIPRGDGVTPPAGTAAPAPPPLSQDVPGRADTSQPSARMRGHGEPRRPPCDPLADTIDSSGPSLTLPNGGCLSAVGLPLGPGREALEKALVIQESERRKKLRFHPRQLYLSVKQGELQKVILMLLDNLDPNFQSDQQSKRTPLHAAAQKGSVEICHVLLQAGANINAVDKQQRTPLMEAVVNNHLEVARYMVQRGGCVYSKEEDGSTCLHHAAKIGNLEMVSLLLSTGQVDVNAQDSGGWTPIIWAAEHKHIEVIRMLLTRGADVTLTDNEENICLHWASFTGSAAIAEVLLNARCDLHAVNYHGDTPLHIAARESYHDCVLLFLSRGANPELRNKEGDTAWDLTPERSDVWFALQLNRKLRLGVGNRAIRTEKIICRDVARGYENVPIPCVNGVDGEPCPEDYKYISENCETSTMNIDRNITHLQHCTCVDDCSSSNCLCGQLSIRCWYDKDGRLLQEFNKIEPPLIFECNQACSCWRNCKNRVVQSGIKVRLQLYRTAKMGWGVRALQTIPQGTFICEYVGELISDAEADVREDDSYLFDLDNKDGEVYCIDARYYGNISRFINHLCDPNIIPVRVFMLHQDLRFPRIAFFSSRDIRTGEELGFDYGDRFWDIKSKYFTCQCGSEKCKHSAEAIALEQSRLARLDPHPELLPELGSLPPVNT
Type: cell-based
Method in brief: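 Steps: compound added to plate, MDA-MB-231 cells plated in RPMI with 10% FBS, incubation for 48 h at 37 °C, fixation, overnight anti-H3K9me2 staining at 4 °C, and donkey anti-mouse 800CW with DRAQ5 counterstain. IC50 values come from percent inhibition fitted with a four-parameter model.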

Compared with CNc1ccnc(Nc2ccc(OC)c(OCCCN3CCCC3)c2)n1 [Compound 1, N^2-(4-methoxy-3-(3-(pyrrolidin-1-yl)propoxy)phenyl)-N^4-methylpyrimidine-2,4-diamine], COc1ccc(Nc2nccc(NC3CCOCC3)n2)cc1OCCCN1CCCC1 [Compound 5, N^2-(4-methoxy-3-(3-(pyrrolidin-1-yl)propoxy)phenyl)-N^4-(tetrahydro-2H-pyran-4-yl)pyrimidine-2,4-diamine] is higher in IC50: less than 0.1 µM for the first, 0.1 to 1 µM for the second. The first is the more potent here.

COc1ccc(Nc2nccc(NCC3CCN(CC(F)F)CC3)n2)cc1OCCCN1CCCC1 [Compound 2, N^4-((1-(2,2-difluoroethyl)piperidin-4-yl)methyl)-N^2-(4-methoxy-3-(3-(pyrrolidin-1-yl)propoxy)phenyl)pyrimidine-2,4-diamine] and COc1ccc(Nc2nccc(NCC3CCN(CC(F)(F)F)CC3)n2)cc1OCCCN1CCCC1 [Compound 4, N^2-(4-methoxy-3-(3-(pyrrolidin-1-yl)propoxy)phenyl)-N^4-((1-(2,2,2-trifluoroethyl)piperidin-4-yl)methyl)pyrimidine-2,4-diamine] fall in the same range of IC50: 0.1 to 1 µM for the first, 0.1 to 1 µM for the second.

First: COc1ccc(Nc2nccc(NCC3CCOCC3)n2)cc1OCCCN1CCCC1 [Compound 3, N^2-(4-methoxy-3-(3-(pyrrolidin-1-yl)propoxy)phenyl)-N^4-((tetrahydro-2H-pyran-4-yl)methyl)pyrimidine-2,4-diamine]
Second: COc1ccc(Nc2nccc(NCC3CCNCC3)n2)cc1OCCCN1CCCC1 [Compound 90]
The IC50 of the first is lower: 0.1 to 1 µM for the first, greater than 10 µM for the second. The first is the more potent here.

COc1ccc(Nc2nccc(NCC(=O)N3CCOCC3)n2)cc1OCCCN1CCCC1 [Compound 51] and COc1ccc(Nc2nccc(NC3CCN(C(C)=O)CC3)n2)cc1OCCCN1CCCC1 [Compound 54] fall in the same range of IC50: 1 to 10 µM for the first, 1 to 10 µM for the second.

COc1ccc(Nc2nccc(NCC(=O)N(C)c3ccccc3)n2)cc1OCCCN1CCCC1 [Compound 52] and COc1ccc(Nc2nccc(N(C)Cc3ccncc3)n2)cc1OCCCN1CCCC1 [Compound 56] fall in the same range of IC50: 1 to 10 µM for the first, 1 to 10 µM for the second.

COc1ccc(Nc2nccc(N3Cc4cn[nH]c4C3)n2)cc1OCCCN1CCCC1 [Compound 53] and COc1ccc(Nc2ncc(C)c(NCC3CCN(C(C)=O)CC3)n2)cc1OCCCN1CCCC1 [Compound 55] fall in the same range of IC50: 1 to 10 µM for the first, 1 to 10 µM for the second.

COc1ccc(Nc2nccc(NCC3CCN(C(C)=O)CC3)n2)cc1COCCN1CC(F)C1 [Compound 57] and c1cc(Nc2nccc(NCC3CCNCC3)n2)cc(OCCCN2CCCC2)c1 [Compound 88] fall in the same range of IC50: 1 to 10 µM for the first, 1 to 10 µM for the second.

Same assay, conditions: Table III; MDA-MB-231 H3K9me2 in-cell Western; read-out: EHMT2 ICW (IC50 μM)

Compared with CNc1ccnc(Nc2ccc(OC)c(OC[C@H](O)CN3CCCC3)c2)n1 (single isomer, unassigned) [Compound 376], CNc1ccnc(Nc2ccc(OC)c(OC[C@@H](O)CN3CCCC3)c2)n1 (single isomer, unassigned) [Compound 377] is higher in IC50: 1 to 10 µM for the first, greater than 10 µM for the second. The first is the more potent here.

CNc1ccnc(Nc2ccc(OC)c(OCC3CCN(C)C3)c2)n1 (single isomer, unassigned) [Compound 415] and CNc1cc(C)nc(Nc2ccc(OC)c(OCC3CCN(C)C3)c2)n1 (single isomer, unassigned) [Compound 417] fall in the same range of IC50: 1 to 10 µM for the first, 1 to 10 µM for the second.

Compared with CNc1ccnc(Nc2ccc(OC)c(OCC3CCN(C)C3)c2)n1 (single isomer, unassigned) [Compound 416], CNc1cc(C)nc(Nc2ccc(OC)c(OCC3CCN(C)C3)c2)n1 (single isomer, unassigned) [Compound 418] is lower in IC50: 0.1 to 1 µM for the first, less than 0.1 µM for the second. The second is the more potent here.

First: CNc1cc(OC)nc(Nc2ccc(OC)c(OCCCN3CCCC3)c2)n1 [Compound 261, 6-methoxy-N^2-(4-methoxy-3-(3-(pyrrolidin-1-yl)propoxy)phenyl)-N^4-methylpyrimidine-2,4-diamine]
Second: CCc1cc(NC)nc(Nc2ccc(OC)c(OCCCN3CCCC3)c2)n1 [Compound 364]
The IC50 of the first is higher: greater than 10 µM for the first, 0.1 to 1 µM for the second. The second is the more potent here.

CNc1ccnc(Nc2ccc3c(c2)C(=O)N(CCN2CCCC2)CC3)n1 [Compound 264, 7-((4-(methylamino)pyrimidin-2-yl)amino)-2-(2-(pyrrolidin-1-yl)ethyl)-3,4-dihydroisoquinolin-1(2H)-one] and CNc1ccnc(Nc2ccc3ccn(CCN4CCCC4)c(=O)c3c2)n1 [Compound 381] cannot be ordered by IC50: greater than 10 µM for the first, greater than 10 µM for the second.

Compared with COc1ccc(Nc2cccc3[nH]ccc23)cc1OCCCN1CCCC1 [Compound 265, N-(4-methoxy-3-(3-(pyrrolidin-1-yl)propoxy)phenyl)-1H-indol-4-amine], COc1ccc(Nc2nccc3[nH]ccc23)cc1OCCCN1CCCC1 [Compound 266, N-(4-methoxy-3-(3-(pyrrolidin-1-yl)propoxy)phenyl)-1H-pyrrolo[3,2-c]pyridin-4-amine] is lower in IC50: greater than 10 µM for the first, 1 to 10 µM for the second. The second is the more potent here.

CNc1nccc(Nc2ccc(OC)c(OCCCN3CCCC3)c2)n1 [Compound 355] and CNc1ccnc(Nc2ccc(OC)c(OCCCN3CCCCC3)c2)n1 [Compound 390] fall in the same range of IC50: 0.1 to 1 µM for the first, 0.1 to 1 µM for the second.

CNc1cc(C)nc(Nc2ccc(F)c(OCCCN3CCCC3)c2)n1 [Compound 356] and CNc1ccnc(Nc2ccc(F)c(OCCCN3CCCC3)c2)n1 [Compound 368] cannot be ordered by IC50: greater than 10 µM for the first, greater than 10 µM for the second.

CNc1nc(Nc2ccc(OC)c(OCCCN3CCCC3)c2)ncc1C#N [Compound 357] and CNc1nc(Nc2ccc(OC)c(OCCCN3CCCC3)c2)ncc1C(F)(F)F [Compound 358] cannot be ordered by IC50: greater than 10 µM for the first, greater than 10 µM for the second.

CNc1ncc(C(F)(F)F)c(Nc2ccc(OC)c(OCCCN3CCCC3)c2)n1 [Compound 359] and CNc1cc(C(F)(F)F)nc(Nc2ccc(OC)c(OCCCN3CCCC3)c2)n1 [Compound 362] cannot be ordered by IC50: greater than 10 µM for the first, greater than 10 µM for the second.

Compared with CNc1nc(Nc2ccc(OC)c(OCCCN3CCCC3)c2)nc(C)c1F [Compound 360], CNc1cc(C#N)nc(Nc2ccc(OC)c(OCCCN3CCCC3)c2)n1 [Compound 384] is higher in IC50: 0.1 to 1 µM for the first, greater than 10 µM for the second. The first is the more potent here.

First: CNc1ccnc(Nc2ccc(OC)c(OCCN3CCOCC3)c2)n1 [Compound 361]
Second: CNc1ccnc(Nc2ccc(OC)c(COCCN3CCCC3)c2)n1 [Compound 382]
The IC50 of the first is higher: greater than 10 µM for the first, 0.1 to 1 µM for the second.

CNc1ccnc(Nc2ccc3c(c2)N(C(=O)CCN(C)C)CC3)n1 [Compound 363] and CNc1ccnc(Nc2ccc3cnn(CCN(C)C)c3c2)n1 [Compound 386] cannot be ordered by IC50: greater than 10 µM for the first, greater than 10 µM for the second.

Compared with COc1ccc(Nc2nccc(CNC3CCOCC3)n2)cc1OCCCNc1ccccc1 [Compound 365], COc1ccc(Nc2nccc(NC(C)C3CCOCC3)n2)cc1OCCCN1CCCC1 (stereo not drawn) [Compound 378] is lower in IC50: greater than 10 µM for the first, 0.1 to 1 µM for the second.

COc1ccc(Nc2cnnc(NCC3CCN(C(C)=O)CC3)c2)cc1OCCCN1CCCC1 [Compound 366] and CNc1cnnc(Nc2ccc(OC)c(OCCCN3CCCC3)c2)c1 [Compound 370] cannot be ordered by IC50: greater than 10 µM for the first, greater than 10 µM for the second.

First: COc1ccc(Nc2nccc(NCC3CCOCC3)n2)cc1OC1CC2(C1)CN(C)C2 [Compound 367]
Second: CNc1ccnc(Nc2ccc(OC)c(OCCCN(C)C)c2)n1 [Compound 387]
The IC50 of the first is higher: greater than 10 µM for the first, 0.1 to 1 µM for the second.

COc1ccc(Nc2nccc(N)n2)cc1OCCCN1CCCC1 [Compound 369] and CNc1ccnc(Nc2ccc(OC)c(OCCCN3CCCC3)c2)c1 [Compound 379] fall in the same range of IC50: 1 to 10 µM for the first, 1 to 10 µM for the second.

First: CNc1cncc(Nc2ccc(OC)c(OCCCN3CCCC3)c2)n1 [Compound 371]
Second: CNc1cc(Nc2cc(OCCCN3CCCC3)c(OC)cn2)ccn1 [Compound 372]
The IC50 of the first is higher: greater than 10 µM for the first, 0.1 to 1 µM for the second.

COc1ccc(Nc2nccc3[nH]ncc23)cc1OCCCN1CCCC1 [Compound 373] and COc1ccc(Nc2ccnc3[nH]ccc23)cc1OCCCN1CCCC1 [Compound 374] cannot be ordered by IC50: greater than 10 µM for the first, greater than 10 µM for the second.

CC(C)Nc1ccnc(Nc2cccc(OCCCN3CC[C@@H](F)C3)c2)n1 [Compound 375] and CNc1ccnc(Nc2cccc(COCCN3CCCC3)c2)n1 [Compound 383] cannot be ordered by IC50: greater than 10 µM for the first, greater than 10 µM for the second.

First: CCc1cc(NC)nc(Nc2ccc(OC)c(OCCCN3CC[C@@H](F)C3)c2)n1 [Compound 385]
Second: CNc1ccnc(Nc2ccc3cnn(CCCN(C)C)c3c2)n1 [Compound 388, N^2-(1-(3-(dimethylamino)propyl)-1H-indazol-6-yl)-N^4-methylpyrimidine-2,4-diamine]
The IC50 of the first is lower: 1 to 10 µM for the first, greater than 10 µM for the second. The first is the more potent here.

Compound CNc1ccnc(Nc2ccc3c(C)nn(CCCN(C)C)c3c2)n1 [Compound 389] has an IC50 greater than 10 µM.
